According to US7128898B2, “Method of minimizing cell lysis and toothpaste and mouthwash with reduced irritancy” (priority 1999, dated 2006):

System: red blood cells
Experiment: Red blood cell haemolysis assay
Format: cell-based
Source text: In order to determine the relative toxicity or irritancy levels of various toothpastes and mouthwashes, a red blood cell heamolysis assay was employed to obtain information on the effects of these substances on cell membrane integrity. The Red Blood Cell assay provides a simple test system that uses easily obtainable cells and is characterized by defined and objective endpoints. […] Haemoglobin release is a useful endpoint of cell membrane integrity. It is therefore highly suitable as a screening assay in a first-order in vitro test battery for the assessment of potential toxicity to tissue, including tissues of the oral cavity.
To assess the membranolytic activity of test materials. The test materials are incubated with isolated red blood cells. The degree of damage to the red blood cell membrane is quantified by spectro-photometric measurement of released haemoglobin.
Red blood cells are isolated concentrations of the test materials defined from results of a range finding study; released is measured at 541 nm and the concentration resulting in 50% hemolysis (relative to a totally lysed sample) calculated. […]
(b) After the final centrifugation, the packed cell volume is diluted with phosphate buffered saline (PBS) to give an approximate 2% erythrocyte suspension. […] The exact volume of PBS required for a 2% suspension is calculated from the optical density and adjusted accordingly. […]

| Structure (SMILES) | % Hemolysis (Individual Components) (0.05% CPC) [%] | % Hemolysis (Individual Components) (0.10% DHA) [%] |
| --- | --- | --- |
| CCCCCCCCCCCCCCCC[n+]1ccccc1 [CPC, Cetylpyridinium Chloride] | 92.36 |  |
| CC(=O)C1C(=O)C=C(C)OC1=O (centres unmarked) [DHA, dehydroacetic acid] |  | 3.24 |
